From patent US20250186436A1 (4E Therapeutics, Inc., priority 2021, published 2025)
“And” between values parts separate entries of the source, which are not always exact repeats. Equal entries are not always repeated.

Key:
[1] = biological target: T1, recombinant full length human kinase MNK2 (Homo sapiens, UniProt Q9HBH9); experiment: MNK2 radiometric kinase activity assay; assay type: biochemical; settings: radiometric activity assay; read-out: MNK2
T1 construct: the recombinant full length human kinase MNK2; made in house; host or cells: insect cells

[2] = system: eIF4E phosphorylation at Serine 209 in HEK 293 cells; experiment: eIF4E phosphorylation in HEK 293 cells (phospho-specific antibody, fluorescent plate reader); assay type: cell-based; settings: Homo sapiens, HEK293; eIF4E phosphorylation at Serine 209, 2 hours exposure; read-out: HEK 293 cell;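 further: Well-level p-eIF4E immunofluorescence normalized to DAPI signal, expressed as percent eIF4E phosphorylation, with IC50 derived from concentration-response curves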
[3] = PK study in CD-1 male mice with IV and PO dosing (Example 3); assay type: in vivo; settings: for AUC(0-t): AUClast; for concentration at 24 h: Clast; for MRT inf: MRTinf
Description: Example 3: PK study of 4ET-03-053 in CD-1 male mice with IV and PO dosing
In mice, following IV administration with 1.5 mg/kg, plasma concentrations declined in a multiphasic manner with an initial concentration (Co) of 708 ng/mL and a last measurable concentration (Clast) of 5.29 ng/mL at 24 h post dose.

[4] = PK study in male Sprague Dawley rats, IV 1 mg/kg and PO 10 mg/kg (Example 4); assay type: in vivo; settings: for clearance: CLp; for Vd: Vss; for concentration at 24 h: plasma; for AUC(0-t): AUClast
[5] = Plasma and brain concentrations, brain to plasma ratio 24 hr after last of five 10 mg/kg PO doses (Example 7); assay type: in vivo; settings: rats, 24 hr after the last of five 10 mg/kg PO doses; for concentration at 24 h: oral, 10 mg/kg
From the text: Table 21 provides plasma and brain concentrations at 24 hr after the last dose of five daily P0 doses of 4ET-03-053.

[6] = system: eIF4E phosphorylation in hDRGs; experiment: p-eIF4E immunofluorescence in cultured human dorsal root ganglion cells (hDRGs); assay type: cell-based; settings: immunofluorescence
Description: For all human DRG experiments, DRGs were recovered from organ donors at the Southwest Transplant Alliance under an IRB approved protocol at University of Texas at Dallas. DRGs were recovered within 3 hrs of cross clamp. DRGs were recovered and taken back to the University of Texas lab where they were cultured using the protocol described previously. Cultures were grown on glass coverslips for microscopy. Coverslips were coated with poly-D-lysine and laminin to improve neuronal adherence to the coverslips. Cultures of human DRG neurons were grown for 4-7 days prior to treatment with OSM. OSM treatment was done in culture media for a period of 30 min. Cells were stained with antibodies using the same protocol as described above for HEK293 cells. Imaging was done on an Olympus FV1200 microscope and image analysis was done with CellSens software. Statistical analysis was done with Graphpad Prism V8.
Human DRG recovery and other experimental protocols were the same as described herein.

[7] = Liver microsome stability; settings: mouse, liver microsomes
P-gp (human MDR1, ABCB1) = experiment: MDCK-MDR1 permeability (blood-brain barrier permeability); settings: dog
[8] = male, CD-1, mouse, in vivo, iv, 1.5 mg/kg
[9] = male, CD-1, mouse, in vivo, po, 10 mg/kg
[10] = SD rats, single PO 10 mg/kg, 10% DMA/PG, individual animals, 10 mg/kg
[11] = SD rats, single PO 10 mg/kg, 10% DMA/PG, mean (n = 3)
[12] = male SD rats, 1 mg/kg IV, individual animals, 1 mg/kg
[13] = male SD rats, 1 mg/kg IV, mean (n = 3)
[14] = male, Sprague Dawley, rat, in vivo, iv, 1 mg/kg
[15] = male, Sprague-Dawley, rat, in vivo, iv, 1 mg/kg
[16] = male, Sprague-Dawley, rat, in vivo, po, 10 mg/kg

T1 sequence (Q9HBH9 whole entry): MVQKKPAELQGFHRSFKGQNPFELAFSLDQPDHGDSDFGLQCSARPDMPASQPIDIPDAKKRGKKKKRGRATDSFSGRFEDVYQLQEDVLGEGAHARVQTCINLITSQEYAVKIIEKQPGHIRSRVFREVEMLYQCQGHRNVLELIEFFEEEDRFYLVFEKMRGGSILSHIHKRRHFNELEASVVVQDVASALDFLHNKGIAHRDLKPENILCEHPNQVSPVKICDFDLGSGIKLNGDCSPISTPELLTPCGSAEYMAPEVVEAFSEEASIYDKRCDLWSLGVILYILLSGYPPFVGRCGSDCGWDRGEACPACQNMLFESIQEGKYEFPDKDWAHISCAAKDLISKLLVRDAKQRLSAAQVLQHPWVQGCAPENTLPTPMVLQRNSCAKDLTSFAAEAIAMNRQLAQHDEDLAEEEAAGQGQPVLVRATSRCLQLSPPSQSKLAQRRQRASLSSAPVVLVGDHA

## Cc1cc(Nc2cc(N)ncn2)c(=O)n2c1C(=O)NC21CCC2(CC2)CC1 [4ET-03-053, 6″-((6-Aminopyrimidin-4-yl)amino)-8″-methyl-2″H-dispiro[cyclopropane-1,1′-cyclohexane-4′,3″-imidazo[1,5-a]pyridine]-1″,5″-dione]
[1]
  IC50: 20.9 nM
[2]
  IC50: 10.1 nM
[3]; CD-1 male mice, 10 mg/kg PO, individual animals, 10 mg/kg
  F: 75.6%
[3]; [8]
  clinical observation after dosing: lying on side and immobile with heavy breathing for about 1 min
  AUC(0-t): 1300 ng·h/mL
  concentration at 24 h: 5.29 ng/mL
  MRT inf: 4.93 h
[3]; male, CD-1, mouse, in vivo, iv, 1.5 mg/kg, AUCinf
  AUC(0-inf): 1530 ng·h/mL
[3]; male, CD-1, mouse, in vivo, iv, 1.5 mg/kg, CLp
  clearance: 19.3 mL/min/kg
[3]; male, CD-1, mouse, in vivo, iv, 1.5 mg/kg, Vss
  Vd: 5.63 L/kg
[3]; male, CD-1, mouse, in vivo, iv, 1.5 mg/kg, t1/2
  half-life: 370 min
[3]; male, CD-1, mouse, in vivo, iv, 1.5 mg/kg, total systemic exposure (AUCinf)
  AUC(0-inf): 1320 ng·h/mL
[3]; [9]
  Tmax: 30 min
  bioavailability: 75%
  time to mean peak plasma concentration: ≤ 30 min
  AUC(0-t): 6420 ng·h/mL
  concentration at 24 h: 33.2 ng/mL
  MRT inf: 6.7 h
[3]; male, CD-1, mouse, in vivo, po, 10 mg/kg, AUCinf
  AUC(0-inf): 6670 ng·h/mL
[3]; male, CD-1, mouse, in vivo, po, 10 mg/kg, Cmax
  Cmax: 807 ng/mL
[3]; male, CD-1, mouse, in vivo, po, 10 mg/kg, t1/2
  half-life: 308 min
[3]; male, CD-1, mouse, in vivo, po, 10 mg/kg, total systemic exposure (AUCinf)
  AUC(0-inf): 6620 ng·h/mL
[3]; mice, slow IV injection at 3 mg/kg, first animal
  clinical observation after dosing: died immediately after a slow IV injection
[3]; mouse, in vivo, CD-1 male mice, 10 mg/kg PO, individual animals, read-out: t1/2 (converted)
  half-life: 307 min
[4]; SD rats, single PO 10 mg/kg, 10% DMA/PG, individual animals
  Tlast: 24.0 h
[4]; [10]
  AUCinf/D: 23000 kg·h/kL and 24504 kg·h/kL and 18751 kg·h/kL
  Clast: 2710 ng/mL and 2950 ng/mL
  Cmax/D: 1440 kg/kL and 1960 kg/kL and 1840 kg/kL
  F: 44.7% and 47.6% and 36.4%
[4]; [11]
  AUCinf/D: 22085 kg·h/kL
  Cmax/D: 1747 kg/kL
  F: 42.9%
  Tlast: 24.0 h
[4]; male SD rats, 1 mg/kg IV, individual animals
  Tlast: 24.0 h
[4]; [12]
  AUCinf: 55049 ng·h/mL and 46264 ng·h/mL
  AUCinf/D: 53103 kg·h/kL and 55049 kg·h/kL and 46264 kg·h/kL
  Clast: 302 ng/mL and 336 ng/mL
  Co: 8106 ng/mL and 7353 ng/mL and 7726 ng/mL
[4]; [13]
  AUCinf/D: 51472 kg·h/kL
  Co: 7728 ng/mL
  Tlast: 24.0 h
[4]; [14]
  C0: 7730 ng/mL
  CLp: 0.326 mL/min/kg
  clearance: 0.33 mL/min/kg
  Vd: 0.15 L/kg
[4]; male, Sprague Dawley, rat, in vivo, iv, 1 mg/kg, t1/2
  half-life: 382 min
[4]; male, Sprague Dawley, rat, in vivo, iv, 1 mg/kg, total systemic exposure (AUCinf)
  AUC(0-inf): 51500 ng·h/mL
[4]; male, Sprague Dawley, rat, in vivo, po, 10 mg/kg
  bioavailability: 42.9%
[4]; male, Sprague Dawley, rat, in vivo, po, 10 mg/kg, peak plasma concentration (Cmax)
  Cmax: 17500 ng/mL
[4]; male, Sprague Dawley, rat, in vivo, po, 10 mg/kg, terminal half-life (t1/2)
  half-life: 546 min
[4]; male, Sprague Dawley, rat, in vivo, po, 10 mg/kg, total systemic exposure (AUCinf)
  AUC(0-inf): 221000 ng·h/mL
[4]; male, Sprague Dawley, rat, iv, 1 mg/kg, male SD rats, 1 mg/kg IV, at 24 h, mean (n = 3), read-out: Clast
  concentration at 24 h: 350 ng/mL
[4]; male, Sprague Dawley, rat, po, 10 mg/kg, rats, 10 mg/kg PO, 10% DMA/PG, at 24 h, read-out: last measurable concentration
  concentration at 24 h: 2620 ng/mL
[4]; [15]
  AUC(0-t): 51.1 µg·h/mL
  clearance: 0.314 mL/min/kg
  Vd: 0.136 L/kg
[4]; male, Sprague-Dawley, rat, in vivo, iv, 1 mg/kg, MRTinf
  MRT inf: 7.24 h
[4]; male, Sprague-Dawley, rat, in vivo, iv, 1 mg/kg, male SD rats, 1 mg/kg IV, individual animals, read-out: AUCinf
  AUC(0-inf): 53100 ng·h/mL
[4]; male, Sprague-Dawley, rat, in vivo, iv, 1 mg/kg, male SD rats, 1 mg/kg IV, mean (n = 3), read-out: AUCinf
  AUC(0-inf): 51500 ng·h/mL
[4]; male, Sprague-Dawley, rat, in vivo, iv, 1 mg/kg, t1/2
  half-life: 398 min
[4]; [16]
  Tmax: 30 min
  AUC(0-t): 194 µg·h/mL
[4]; male, Sprague-Dawley, rat, in vivo, po, 10 mg/kg, Cmax
  Cmax: 14400 ng/mL
[4]; male, Sprague-Dawley, rat, in vivo, po, 10 mg/kg, t1/2
  half-life: 544 min
[4]; male, Sprague-Dawley, rat, iv, 1 mg/kg, male SD rats, 1 mg/kg IV, individual animals, read-out: Clast
  concentration at 24 h: 411 ng/mL
[4]; male, Sprague-Dawley, rat, po, 10 mg/kg, SD rats, single PO 10 mg/kg, 10% DMA/PG, individual animals, read-out: Clast
  concentration at 24 h: 2210 ng/mL
[4]; male, Sprague-Dawley, rat, po, 10 mg/kg, SD rats, single PO 10 mg/kg, 10% DMA/PG, mean (n = 3), read-out: Clast
  concentration at 24 h: 2620 ng/mL
[4]; rats, 1 mg/kg IV
  clinical observation after dosing: lying on side and immobile with heavy breathing for about 10 min
[4]; rats, 1 mg/kg IV, 1 mg/kg
  clinical observation after dosing: The second animal died right after a slow IV injection
[4]; rats, 10 mg/kg PO, 10% DMA/PG
  time to peak plasma concentration: ≤ 30 m
[5]; male, Sprague-Dawley, rat, brain homogenate, brain homogenate, individual animals (n = 3), read-out: Tissue Homogenate Conc.
  concentration at 24 h: 75.6 ng/mL
[5]; male, Sprague-Dawley, rat, brain homogenate, brain homogenate, mean, read-out: Tissue Homogenate Conc., Mean
  concentration at 24 h: 85.6 ng/mL
[5]; male, Sprague-Dawley, rat, brain, brain, read-out: Mean Tissue
  concentration at 24 h: 342 ng/g
[5]; male, Sprague-Dawley, rat, plasma, plasma, individual animals (n = 3), read-out: Plasma Conc.
  concentration at 24 h: 2390 ng/mL
[5]; male, Sprague-Dawley, rat, plasma, plasma, mean, read-out: Plasma Conc., Mean
  concentration at 24 h: 2670 ng/mL
[5]; male, Sprague-Dawley, rat, brain to plasma, read-out: Mean Tissue/Plasma Conc. Ratio
  Kp at 24 h: 0.128
[5]; brain homogenate, individual animals (n = 3)
  Tissue Homogenate Conc.: 88.2 ng/mL and 93.0 ng/mL
[5]; plasma, individual animals (n = 3)
  Plasma Conc.: 2740 ng/mL and 2880 ng/mL
[6]; 30 min treatment
  phosphorylation of eIF4E in hDRGs: reduces phosphorylation of eIF4E
[6]; in presence of OSM
  phosphorylation of eIF4E in hDRGs in the presence of OSM: reduces phosphorylation of eIF4E
[7]
  half-life: 228 min
P-gp (human MDR1, ABCB1)
  Papp A→B at 5 uM: 63.3 ×10⁻⁶ cm/s
  Papp B→A at 5 uM: 68.1 ×10⁻⁶ cm/s
  efflux ratio at 5 uM: 1.1
